Converted amounts (≈) assume the structure as drawn.
What was measured:
[1] = Cytotoxicity against human MIAPaCa2 cells after 72 hrs by CCK8 assay; format: functional, cell-based; conditions: MIA PaCa-2, 72 h
[2] = Cytotoxicity against human HCT116 cells after 72 hrs by CCK8 assay; format: functional, cell-based; conditions: HCT-116, 72 h
[3] = Solubility in 80% EtOH/20% water; format: physicochemical; conditions: 80% EtOH/20% water; read-out: solubility

Compound: CC(C)C[C@@H]1NC(=O)[C@H](C(C)C)N(C)C(=O)[C@@H](CC(C)C)NC(=O)[C@@H](Cc2ccccc2)NC(=O)[C@@H](C(c2ccccc2)c2ccccc2)NC1=O
- IC50 [1]: 12.8 µM
- IC50 [2]: 7.6 µM
- solubility [3]: 2100 µg/mL (≈ 2960 µM)

Compound: CC(C)C[C@@H]1NC(=O)[C@H](C(C)C)N(C)C(=O)[C@@H](CC(C)C)NC(=O)[C@@H](Cc2ccccn2)NC(=O)[C@@H](C(c2ccccc2)c2ccccc2)NC1=O
- IC50 [1]: 23.6 µM
- IC50 [2]: 18.1 µM

Compound: CC(C)C[C@@H]1NC(=O)[C@H](C(C)C)N(C)C(=O)[C@@H](CC(C)C)NC(=O)[C@@H](Cc2cccnc2)NC(=O)[C@@H](C(c2ccccc2)c2ccccc2)NC1=O
- IC50 [1]: 23 µM
- IC50 [2]: 20.8 µM

Compound: CC(C)C[C@@H]1NC(=O)[C@H](C(C)C)N(C)C(=O)[C@@H](CC(C)C)NC(=O)[C@@H](Cc2ccncc2)NC(=O)[C@@H](C(c2ccccc2)c2ccccc2)NC1=O
- IC50 [1]: 18.5 µM
- IC50 [2]: 15.7 µM

Compound: COc1ccc(C[C@H]2NC(=O)[C@@H](C(c3ccccc3)c3ccccc3)NC(=O)[C@H](CC(C)C)NC(=O)[C@H](C(C)C)N(C)C(=O)[C@@H](CC(C)C)NC2=O)cc1
- IC50 [1]: 4.4 µM
- IC50 [2]: 5.1 µM
- solubility [3]: 1500 µg/mL (≈ 2030 µM)

From ChEMBL document CHEMBL3352743, “Chemically accessible hsp90 inhibitor that does not induce a heat shock response” (ACS Med Chem Lett, 2014)
